From patent US20250186437A1, “CARBOLINE COMPOUNDS AND USE THEREOF” (PTC Therapeutics, Inc., priority 2021, published 2025)

Test system: MOLM-13 cells
Experiment: MOLM-13 Cell Proliferation Assay (indicator of DHODH inhibition)
Assay type: cell-based
Conditions: Homo sapiens, 72 Hours of culture, CellTiter-Glo, no uridine
Description: The following assay was conducted to measure proliferation of MOLM-13 cells in the presence of each compound studied. This assay was included as an indicator of DHODH inhibition, as growth of MOLM-13 cells is known to depend on synthesis of pyrimidines using the de novo pathway, which can be blocked by inhibition of DHODH. • 1. MOLM-13 cells were cultured in RPMI 1640 medium+10% Fetal Bovine Serum (FBS). Only low passage cells (<20) were used for the compound tests • 2. On day 1, Log-phase growing Molm-13 Cells were counted and diluted to 10^5 cells/mL in RPMI 1640 medium+10% FBS • 3. 100 μL of diluted MOLM-13 cells in 96 well white plates were seeded, for a final density of 10^4 cells/well. • 4. 0.5 μL of pre-diluted 200× compounds or DMSO control was added to each well. The final DMSO concentration was 0.5%. • 5. After 72 Hours of culture at 37° C., 5% CO2, the plates were taken out and cooled to RT, then 50 μL CellTiter-Glo® (Promega) was added, and the composition was mixed at RT for 10 minutes. • 6. The plates were then read by ViewLux (Speed-fast, Gain-High, Bining-1X, 5 seconds).

| SMILES | IC50 [nM] |
| --- | --- |
| CN(C)c1ccc2[nH]c3c(c2c1)CCN(c1nccc(C(F)(F)F)n1)C3c1cnc(N2CCOCC2)nc1 (stereo not drawn) [Compound 329, N,N-dimethyl-1-[2-(morpholin-4-yl)pyrimidin-5-yl]-2-[4-(trifluoromethyl)pyrimidin-2-yl]-2,3,4,9-tetrahydro-1H-pyrido[3,4-b]indol-6-amine] | 35.4 |
| OCCNc1ncc([C@H]2c3[nH]c4ccc(Cl)cc4c3CCN2c2nc(C(F)(F)F)nc(C(F)(F)F)n2)cn1 [Compound 535, 2-[(5-{(1S)-2-[4,6-bis(trifluoromethyl)-1,3,5-triazin-2-yl]-6-chloro-2,3,4,9-tetrahydro-1H-pyrido[3,4-b]indol-1-yl}pyrimidin-2-yl)amino]ethan-1-ol] | 0.7 |
| Cc1ccc([C@H]2c3[nH]c4ccc(Cl)cc4c3CCN2c2nc(N(C)C)nc(C(F)(F)F)n2)cc1 [Compound 441, 4-[(1S)-6-chloro-1-(4-methylphenyl)-1,3,4,9-tetrahydro-2H-pyrido[3,4-b]indol-2-yl]-N,N-dimethyl-6-(trifluoromethyl)-1,3,5-triazin-2-amine] | 5.7 |
| Fc1c(Cl)ccc2[nH]c3c(c12)CCN(c1nccc(C(F)(F)F)n1)C3c1cccnc1 (stereo not drawn) [Compound 202, 6-chloro-5-fluoro-1-(pyridin-3-yl)-2-[4-(trifluoromethyl)pyrimidin-2-yl]-2,3,4,9-tetrahydro-1H-pyrido[3,4-b]indole] | 16.2 |
| FC(F)(F)c1ccnc(N2CCc3c([nH]c4ccc(Cl)cc34)C2c2ccc(Cl)nc2Cl)n1 (stereo not drawn) [Compound 319, 6-chloro-1-(2,6-dichloropyridin-3-yl)-2-[4-(trifluoromethyl)pyrimidin-2-yl]-2,3,4,9-tetrahydro-1H-pyrido[3,4-b]indole] | 82.1 |
| CN1CCN(c2ncc([C@H]3c4[nH]c5ccc(-n6nccn6)cc5c4CCN3c3nc(C(F)(F)F)nc(C(F)(F)F)n3)cn2)CC1 [Compound 501, (1S)-2-[4,6-bis(trifluoromethyl)-1,3,5-triazin-2-yl]-1-[2-(4-methylpiperazin-1-yl)pyrimidin-5-yl]-6-(2H-1,2,3-triazol-2-yl)-2,3,4,9-tetrahydro-1H-pyrido[3,4-b]indole] | 1.4 |
| Cc1nc(C)nc(N2CCc3c([nH]c4ccc(Cl)cc34)C2c2ccc(F)cc2)n1 (stereo not drawn) [Compound 450, 6-chloro-2-(4,6-dimethyl-1,3,5-triazin-2-yl)-1-(4-fluorophenyl)-2,3,4,9-tetrahydro-1H-pyrido[3,4-b]indole] | 29.8 |
| Cc1ccc(C2c3[nH]c4ccc(Cl)c(F)c4c3CCN2c2ncc(Cl)cn2)c(F)c1F (stereo not drawn) [Compound 195, 6-chloro-2-(5-chloropyrimidin-2-yl)-1-(2,3-difluoro-4-methylphenyl)-5-fluoro-2,3,4,9-tetrahydro-1H-pyrido[3,4-b]indole] | 1 |
| CN1CCN(c2ccc([C@H]3c4[nH]c5ccc(Cl)cc5c4CCN3c3nc(C(F)(F)F)cc(C(F)(F)F)n3)cn2)CC1 [Compound 481, (1S)-2-[4,6-bis(trifluoromethyl)pyrimidin-2-yl]-6-chloro-1-[6-(4-methylpiperazin-1-yl)pyridin-3-yl]-2,3,4,9-tetrahydro-1H-pyrido[3,4-b]indole] | 0.6 |
| CN1CCN(c2ccc(C3c4[nH]c5ccc(-n6nccn6)cc5c4CCN3c3nccc(C(F)(F)F)n3)cn2)CC1 (stereo not drawn) [Compound 513, 1-[6-(4-methylpiperazin-1-yl)pyridin-3-yl]-6-(2H-1,2,3-triazol-2-yl)-2-[4-(trifluoromethyl)pyrimidin-2-yl]-2,3,4,9-tetrahydro-1H-pyrido[3,4-b]indole] | 11.2 |
| Cc1ccc(C2c3[nH]c4cc(F)c(Cl)cc4c3CCN2c2ncc(C(F)(F)F)cn2)cc1 (stereo not drawn) [Compound 97, 6-chloro-7-fluoro-1-(4-methylphenyl)-2-[5-(trifluoromethyl)pyrimidin-2-yl]-2,3,4,9-tetrahydro-1H-pyrido[3,4-b]indole] | 15.3 |
| Fc1c(Cl)ccc2[nH]c3c(c12)CCN(c1nccc(C(F)(F)F)n1)C3c1cnc(N2CCOCC2)nc1 (stereo not drawn) [Compound 200, 6-chloro-5-fluoro-1-[2-(morpholin-4-yl)pyrimidin-5-yl]-2-[4-(trifluoromethyl)pyrimidin-2-yl]-2,3,4,9-tetrahydro-1H-pyrido[3,4-b]indole] | 2.1 |
| Cc1ccc([C@H]2c3[nH]c4ccc(Cl)cc4c3CCN2c2nc(C#N)nc(C(F)(F)F)n2)c(F)c1F [Compound 390, 4-[(1S)-6-chloro-1-(2,3-difluoro-4-methylphenyl)-1,3,4,9-tetrahydro-2H-pyrido[3,4-b]indol-2-yl]-6-(trifluoromethyl)-1,3,5-triazine-2-carbonitrile] | 3.5 |
| Fc1ccc(C2c3[nH]c4ccc(Cl)cc4c3CCN2c2nccc(C(F)(F)F)n2)cc1 (stereo not drawn) [Compound 422, 6-chloro-1-(4-fluorophenyl)-2-[4-(trifluoromethyl)pyrimidin-2-yl]-2,3,4,9-tetrahydro-1H-pyrido[3,4-b]indole] | 7.1 |
| Cc1nc(N2CCc3c([nH]c4ccc(Cl)cc34)C2c2cnc(N3CCOCC3)nc2)nc(C)c1F (stereo not drawn) [Compound 368, 6-chloro-2-(5-fluoro-4,6-dimethylpyrimidin-2-yl)-1-[2-(morpholin-4-yl)pyrimidin-5-yl]-2,3,4,9-tetrahydro-1H-pyrido[3,4-b]indole] | 7.9 |
| Fc1c(Cl)ccc(C2c3[nH]c4ccc(Cl)cc4c3CCN2c2nccc(C(F)(F)F)n2)c1F (stereo not drawn) [Cpd 144, 6-chloro-1-(4-chloro-2,3-difluorophenyl)-2-[4-(trifluoromethyl)pyrimidin-2-yl]-2,3,4,9-tetrahydro-1H-pyrido[3,4-b]indole] | 0.7 |
| Cc1ccc(C2c3[nH]c4ccc(Cl)c([N+](=O)[O-])c4c3CCN2c2nccc(C(F)(F)F)n2)c(F)c1F (stereo not drawn) [Compound 266, 6-chloro-1-(2,3-difluoro-4-methylphenyl)-5-nitro-2-[4-(trifluoromethyl)pyrimidin-2-yl]-2,3,4,9-tetrahydro-1H-pyrido[3,4-b]indole] | 1.3 |
| OCCCc1ccc(C2c3[nH]c4cc(F)c(Cl)cc4c3CCN2c2nccc(C(F)(F)F)n2)cc1 (stereo not drawn) [Compound 156, 3-(4-{6-chloro-7-fluoro-2-[4-(trifluoromethyl)pyrimidin-2-yl]-2,3,4,9-tetrahydro-1H-pyrido[3,4-b]indol-1-yl}phenyl)propan-1-ol] | 4 |
| Cc1ccc(C2c3[nH]c4cc(F)c(Cl)cc4c3CCN2c2nc(C)c(F)c(C)n2)c(F)c1F (stereo not drawn) [Compound 143, 6-chloro-1-(2,3-difluoro-4-methylphenyl)-7-fluoro-2-(5-fluoro-4,6-dimethylpyrimidin-2-yl)-2,3,4,9-tetrahydro-1H-pyrido[3,4-b]indole] | 1.2 |
| FC(F)(F)c1ccnc(N2CCc3c([nH]c4ccc(Cl)cc34)C2c2ccc(N3CCOCC3)cc2)n1 (stereo not drawn) [Compound 262, 6-chloro-1-[4-(morpholin-4-yl)phenyl]-2-[4-(trifluoromethyl)pyrimidin-2-yl]-2,3,4,9-tetrahydro-1H-pyrido[3,4-b]indole] | 1.3 |
| CSc1ncc(C2c3[nH]c4ccc(Cl)cc4c3CCN2c2nc(C)nc(C)n2)cn1 (stereo not drawn) [Compound 346, 6-chloro-2-(4,6-dimethyl-1,3,5-triazin-2-yl)-1-[2-(methylsulfanyl)pyrimidin-5-yl]-2,3,4,9-tetrahydro-1H-pyrido[3,4-b]indole] | 5.2 |
| Cc1nc(N2CCc3c([nH]c4ccc(Cl)cc34)C2c2ccc(C)c(F)c2F)nc(C(F)(F)F)n1 (stereo not drawn) [Compound 438, 6-chloro-1-(2,3-difluoro-4-methylphenyl)-2-[4-methyl-6-(trifluoromethyl)-1,3,5-triazin-2-yl]-2,3,4,9-tetrahydro-1H-pyrido[3,4-b]indole] | 0.6 |
| Cc1ccc(C2c3[nH]c4ccc(C)c(F)c4c3CCN2c2nccc(C(F)(F)F)n2)c(F)c1F (stereo not drawn) [Compound 192, 1-(2,3-difluoro-4-methylphenyl)-5-fluoro-6-methyl-2-[4-(trifluoromethyl)pyrimidin-2-yl]-2,3,4,9-tetrahydro-1H-pyrido[3,4-b]indole] | 2 |
| Cc1ccc(C2c3[nH]c4ccc(Cl)cc4c3CCN2c2nc(C)cc(C)n2)cc1 (stereo not drawn) [Compound 286, 6-chloro-2-(4,6-dimethylpyrimidin-2-yl)-1-(4-methylphenyl)-2,3,4,9-tetrahydro-1H-pyrido[3,4-b]indole] | 4.1 |
| Cc1nc(N2CCc3c([nH]c4ccc(Cl)cc34)C2c2cnc(N3CCOCC3)nc2)nc(C(F)(F)F)n1 (stereo not drawn) [Compound 440, 6-chloro-2-[4-methyl-6-(trifluoromethyl)-1,3,5-triazin-2-yl]-1-[2-(morpholin-4-yl)pyrimidin-5-yl]-2,3,4,9-tetrahydro-1H-pyrido[3,4-b]indole] | 2.1 |
| Cc1cnn(-c2ccc3[nH]c4c(c3c2)CCN(c2nc(C(F)(F)F)cc(C(F)(F)F)n2)[C@H]4c2ccc(C)c(F)c2F)n1 [Compound 520, (1S)-2-[4,6-bis(trifluoromethyl)pyrimidin-2-yl]-1-(2,3-difluoro-4-methylphenyl)-6-(4-methyl-2H-1,2,3-triazol-2-yl)-2,3,4,9-tetrahydro-1H-pyrido[3,4-b]indole] | 1.7 |
| Cc1ccc([C@H]2c3[nH]c4ccc(Cl)cc4c3CCN2c2nc(F)nc(N3CCN(C)CC3)n2)c(F)c1F [Compound 476, (1S)-6-chloro-1-(2,3-difluoro-4-methylphenyl)-2-[4-fluoro-6-(4-methylpiperazin-1-yl)-1,3,5-triazin-2-yl]-2,3,4,9-tetrahydro-1H-pyrido[3,4-b]indole] | 7.6 |
